# Data from US6905834B1, “Bioluminescent bioreporter integrated circuit detection methods” (UT-Battelle, LLC, priority 1997, dated 2005).
# Where two headings read alike, the source gives them in different places.
# How the values were obtained:
# Type in all cases: cell-based, Pseudomonas putida
# [1] = system: P. putida B2; assay: Resting cell assays of P. putida B2, single and multiple toluene exposures; conditions: 10 mg/L toluene; for Bioluminescent response rate, Multiple Exposure Vial: single vial with multiple additions; for Bioluminescent response rate, Single Exposure Vials: new vial previously unexposed
# Method: (§1) In the batch and reactor studies, bioluminescence was measured using a photomultiplier, which converts the light to an electric current. The photomultiplier in the resting cell assays and the reactor system was connected to a computer and bioluminescence as namps current was recorded.
# Cells for resting cell assays were grown on MSM supplemented with 2.7 g L^−1 succinate. A culture of P. putida B2 was harvested at on OD546 of approximately 0.8. The cells were centrifuged at 15000×g for 10 min, and resuspended in MSM to OD546 of 0.6 four milliliters of culture were added to each of six 26-ml vials with Mininert valves (Dynatech, Chantilly, Va.) with stir bars. One vial was used for multiple toluene exposures, while the remainder were used for single exposures. The vials were magnetically stirred in a light-tight sampling cell. Toluene-saturated MSM and MSM alone were added to yield an OD546 of 0.47, and 10 mg L^−1 toluene was injected six times over a 130-h period of the multiple-exposure vial. At the same time points, a single-exposure vial was injected with 10 mg L^−1 toluene. The light response was recorded every 3 min with a photomultiplier connected to a data acquisition computer.
# [2] = system: P. putida B2; assay: Assays of growing cells of tod-lux reporter P. putida B2; conditions: for bioluminescent response: 90 minutes exposure
# Method: as §1
# Assays of growing cells were conducted as described by Heitzer et al. (1992). An overnight culture from a frozen stock of P. putida B2 was prepared in a 250-ml Erlenmeyer flask containing 100 ml LB and 50 μg ml^−1 kanamycin. A subculture was prepared and cells were used in mid-log phase (OD546 of 0.45-0.48). A 2.5-ml aliquot was added to 2.5 ml mineral salts medium (MSM) containing 0-50 mg L^−1 toluene or 10-100 μl of JP4 jet fuel-saturated MSM. The concentration of toluene in water saturated with JP4 jet fuel is approximately 8 mg L^−1 (Smith et al., 1981). Bioluminescence was measured every 30 min.
# [3] = system: P. putida TVA8
# [4] = system: P. putida B2; assay: Immobilized cell reactor (DVR) with alginate-encapsulated P. putida B2: bioluminescence and TCE co-metabolism
# Method: as §1
# P. putida B2 was encapsulated in alginate beads for the immobilized cell reactor system. Cells were grown in 1 L LB to an OD546 of 1.2 and were centrifuged at 5500×g for 10 min, washed three times in 0.9% NaCl and suspended in 40 ml 0.9% NaCl. The cell suspension was added to 80 ml of an alginic acid solution (28 g L^−1 low viscosity alginate, 0.9% NaCl) (Webb, 1992). The cell-alginate suspension was placed in a 60-ml syringe, forced through a 25-gauge needle, and allowed to drop into a 0.5 M CaCl2 Solution. The alginate was cross-linked by the Ca^2+ ions, thus encapsulating the cells. The cells were subsequently placed in a fresh solution of 0.1 M CaCl2 and allowed to sit for 30 min prior to use.
# A differential volume reactor (DVR) was used to simulate a section of an ideal plug flow reactor. Influent to the reactor was dispersed through a porous metal frit to provide a flat velocity profile to the bed. The reactor measured 5.0 cm i.d.×5.0 cm long. A complete description of this reactor can be found in Webb et al. (1991). In this investigation, a system was designed incorporating the DVR as illustrated in FIG. 17. The system was equipped with three Millipore (Bedford, Mass.) stainless steel substrate containers rated to 690 kPa. The feed from the substrate vessels to the reactor inlet was controlled by two Filson (Middleton, Wis.) 301 HPLC pumps. A flow rate of 0.4 ml min^−1 was maintained. The substrate vessels were pressurized with oxygen to provide the system with an electron acceptor. All medium vessels contained trace mineral medium (Lackey et al., 1993) with the addition of 3 mg L^−1 pyruvic acid and a 0.1 M solution of Tris-base (pH 7.0). phosphate buffers were not used since phosphate ions complex with Ca^2+ ions and disrupt with alginate crosslinking. In addition to this medium, two of the vessels contained either TCE or toluene. The inlet concentration of toluene was altered by using square-wave perturbations with 20-h cycles (10 h with toluene, 10 h without toluene) using an HPLC pump controlled by a timer. During feed portions of the cycle, 10 mg L^−1 toluene was introduced into the inlet of the reactor. The inlet TCE concentration was constant at 20 mg L^−1.
# Analysis of TCE in the reactor effluent was performed online using a stripping column (12.5 cm length and 0.4 cm inner diameter) packed with 3-mm glass beads to provide adequate surface area for TCE separation. TCE was stripped with helium, the GC carrier gas. The stripping column outlet was attached to a gas chromatograph (GC, Hewlett Packard (Wilmington, Del.) (HP) 5890 Series II) with an electron capture detector by a heated sample line maintained at 75° C. Automatic injections (25 μl) were made by a computerized control process (HP Chem Station software). The GC was equipped with a cross-linked methyl silicone capillary column (length 30 n, i.d 0.2 mm, 0.33-μm film thickness) while the oven was operated isothermally at 60° C. Other operating parameters included an injection temperature of 150° C., detector temperature of 200° C. and a split ratio of 10:1. This system was equipped with a bypass line around the reactor in order to calibrate the stripping column.
# Toluene samples were removed at 0.5-ml aliquots from the effluent sampling port (FIG. 17) and injected into 1.5 ml sample vials. Headspace analysis was performed using a Shimadzu (Columbia, Md.) GC-9A gas chromatograph equipped with a 2.44-m, 3.2-mm diameter Poropak N packed column and a flame ionization detector. The isothermal temperature of the oven was 210° C., and both the detector and injector temperatures were 220° C.
structure (smiles),measurement,setting,value
"Cc1ccccc1 [Toluene, toluene]",maximum bioluminescent response,[1]; same for single and multiple exposures,573±127 namp
same,"Bioluminescent response rate, Multiple Exposure Vial",[1]; time point 1,95 NAMP/HR
same,"Bioluminescent response rate, Single Exposure Vials",[1]; time point 2,137 NAMP/HR
same,"Bioluminescent response rate, Multiple Exposure Vial",[1]; time point 2,321 NAMP/HR
same,"Bioluminescent response rate, Single Exposure Vials",[1]; time point 3,67 NAMP/HR
same,"Bioluminescent response rate, Multiple Exposure Vial",[1]; time point 3,642 NAMP/HR
same,"Bioluminescent response rate, Single Exposure Vials",[1]; time point 4,60 NAMP/HR
same,"Bioluminescent response rate, Multiple Exposure Vial",[1]; time point 4,768 NAMP/HR
same,"Bioluminescent response rate, Single Exposure Vials",[1]; time point 5,60 NAMP/HR
same,"Bioluminescent response rate, Multiple Exposure Vial",[1]; time point 5,737 NAMP/HR
same,"Bioluminescent response rate, Single Exposure Vials",[1]; time point 6,49 NAMP/HR
same,"Bioluminescent response rate, Multiple Exposure Vial",[1]; time point 6,973 NAMP/HR
same,bioluminescent response (in words),[2]; 0 and 0.01 mg/l toluene,not a significant bioluminescent response
same,bioluminescent response,[2]; 0.1 mg/l toluene,2.4 namp
same,bioluminescent response,"[2]; 10, 20 and 50 mg/l toluene",approximately 90 namp
same,light response (in words),"[3]; approximately 50 mg/L (JP-4 approx. 2%), 2 h",significant light response
same,bioluminescence relative to background bioluminescence level,[3]; at 50 μg toluene/L,80 fold
same,Specific Bioluminescence,"[3]; exposure 2 hours, approximately 50 mg/L, normalized to final OD546, average ± SD of three replicates",291 ± 6 namp/OD
same,Specific Bioluminescence,"[3]; toluene 50 mg/L, 2 h exposure",290 namp/OD546
same,maximum light response,"[4]; 10 mg/L toluene square-wave feed, 20 mg/L TCE",43.4±6.8 namp
same,rate of light response decrease,[4]; after the toluene feed was stopped,3.4±0.8 namp/hr
same,rate of light emission increase,"[4]; during toluene feed cycle, 10 mg/L toluene, 20 mg/L TCE",16.3±1.2 namp/hr
same,effluent toluene concentration,[4]; inlet toluene 10 mg/L,5.8 ± 0.1 mg/L
same,toluene removal,[4]; inlet toluene 10 mg/L,50%
same,ratio toluene degraded to TCE degraded,[4]; steady state in DVR,1.7 μmol toluene degraded/μmol TCE degraded
